Experimental data as given in the NIST ThermoML archive (doi:10.1016/j.tca.2009.10.017).
Where “and” joins values, the source holds several entries; their conditions need not be identical. Equal entries are not always repeated.

Clc1c(Cl)c(Cl)c(Cl)c(Cl)c1Cl [hexachlorobenzene]
vapor or sublimation pressure, Crystal
Details	isothermal thermogravimetry	non-isothermal thermogravimetry
359.7 K	0.002 kPa	–
360.2 K	0.003 kPa	–
361.6 K	0.003 kPa	–
362.5 K	0.003 kPa	–
363.6 K	0.004 kPa	–
364.4 K	0.003 kPa	–
364.5 K	0.004 kPa	–
365.4 K	0.004 kPa	–
365.5 K	0.004 kPa	–
367.4 K	0.005 kPa	–
368 K	0.005 kPa	–
369.5 K	0.005 kPa	–
370.3 K	0.005 kPa	–
371 K	0.006 kPa	–
371.5 K	0.006 kPa and 0.005 kPa	–
374.1 K	0.007 kPa	–
377.1 K	0.008 kPa	–
378.1 K	0.008 kPa	–
378.2 K	0.008 kPa	–
381.4 K	0.012 kPa and 0.011 kPa	–
382.3 K	0.012 kPa	–
382.4 K	0.011 kPa	–
383.1 K	0.012 kPa	–
384.4 K	0.014 kPa	–
385.8 K	0.015 kPa	–
386.2 K	0.015 kPa	–
386.6 K	0.013 kPa	–
388.5 K	0.016 kPa	–
392.7 K	0.021 kPa	–
393.3 K	0.024 kPa	–
396.3 K	0.026 kPa	–
396.7 K	0.026 kPa	–
397.5 K	–	0.038 kPa
399.6 K	0.031 kPa	–
400.4 K	–	0.048 kPa
400.6 K	0.038 kPa	–
400.8 K	–	0.041 kPa
401.2 K	–	0.048 kPa
402 K	–	0.047 kPa
402.8 K	–	0.057 kPa
403.2 K	0.044 kPa	–
403.6 K	–	0.05 kPa
404.1 K	–	0.061 kPa
404.4 K	0.043 kPa	–
404.5 K	–	0.051 kPa
404.9 K	–	0.058 kPa
405.3 K	–	0.053 kPa
405.8 K	–	0.063 kPa
406.1 K	–	0.052 kPa
406.5 K	–	0.06 kPa
407 K	–	0.064 kPa
407.4 K	–	0.061 kPa
407.8 K	–	0.064 kPa
408.2 K	–	0.07 kPa
408.3 K	0.057 kPa	–
408.6 K	–	0.066 kPa
409 K	–	0.078 kPa
409.4 K	–	0.071 kPa
409.8 K	–	0.079 kPa
410.2 K	–	0.076 kPa
410.6 K	–	0.073 kPa
411 K	–	0.074 kPa
411.4 K	–	0.089 kPa
411.9 K	–	0.069 kPa
412.3 K	0.066 kPa	0.078 kPa
412.7 K	–	0.084 kPa
413.2 K	–	0.083 kPa
413.6 K	–	0.085 kPa
414 K	–	0.088 kPa
414.4 K	–	0.093 kPa
414.9 K	–	0.093 kPa
415.3 K	–	0.089 kPa
415.7 K	–	0.101 kPa
416.1 K	–	0.094 kPa
416.5 K	–	0.101 kPa
417 K	–	0.101 kPa
417.4 K	–	0.11 kPa
417.8 K	–	0.118 kPa
418.2 K	–	0.112 kPa
418.6 K	–	0.113 kPa
419.1 K	–	0.129 kPa
419.5 K	–	0.131 kPa
419.9 K	–	0.118 kPa
420.3 K	–	0.134 kPa
420.7 K	–	0.134 kPa
421.1 K	–	0.128 kPa
421.5 K	–	0.131 kPa
421.9 K	–	0.144 kPa
422.3 K	–	0.144 kPa
422.8 K	–	0.143 kPa
423.2 K	–	0.159 kPa
423.6 K	–	0.146 kPa
424 K	–	0.149 kPa
424.4 K	–	0.152 kPa
424.8 K	–	0.169 kPa
425.7 K	–	0.173 kPa

Cl[C@H]1[C@H](Cl)[C@@H](Cl)[C@@H](Cl)[C@H](Cl)[C@H]1Cl [γ-1,2,3,4,5,6-hexachlorocyclohexane]
vapor or sublimation pressure
Details	Crystal	Liquid
347.1 K, isothermal thermogravimetry	0.0017 kPa	–
349.8 K, isothermal thermogravimetry	0.0019 kPa	–
349.9 K, isothermal thermogravimetry	0.002 kPa	–
351.9 K, isothermal thermogravimetry	0.0025 kPa	–
352 K, isothermal thermogravimetry	0.0027 kPa	–
354.4 K, isothermal thermogravimetry	0.0034 kPa	–
355 K, isothermal thermogravimetry	0.0031 kPa	–
356.2 K, isothermal thermogravimetry	0.0039 kPa	–
356.4 K, isothermal thermogravimetry	0.0042 kPa	–
357.8 K, isothermal thermogravimetry	0.004 kPa	–
359.3 K, isothermal thermogravimetry	0.005 kPa	–
361.5 K, isothermal thermogravimetry	0.0052 kPa	–
363.2 K, isothermal thermogravimetry	0.006 kPa	–
364 K, isothermal thermogravimetry	0.0058 kPa	–
364.9 K, isothermal thermogravimetry	0.0082 kPa	–
367.2 K, isothermal thermogravimetry	0.0075 kPa	–
368.1 K, isothermal thermogravimetry	0.0104 kPa	–
371.1 K, isothermal thermogravimetry	0.0122 kPa	–
372.9 K, isothermal thermogravimetry	0.0122 kPa	–
374.3 K, isothermal thermogravimetry	0.0169 kPa	–
376.2 K, isothermal thermogravimetry	0.017 kPa	–
377.4 K, isothermal thermogravimetry	0.0225 kPa	–
377.5 K, non-isothermal thermogravimetry	0.024 kPa	0.024 kPa
378.3 K, non-isothermal thermogravimetry	0.026 kPa	0.026 kPa
379.1 K, non-isothermal thermogravimetry	0.027 kPa	0.027 kPa
379.3 K, isothermal thermogravimetry	0.0228 kPa	–
379.9 K, non-isothermal thermogravimetry	0.028 kPa	0.028 kPa
380.7 K, isothermal thermogravimetry	0.0294 kPa	–
380.7 K, non-isothermal thermogravimetry	0.03 kPa	0.03 kPa
381.5 K, non-isothermal thermogravimetry	0.032 kPa	0.032 kPa
381.8 K, isothermal thermogravimetry	0.0277 kPa	–
382.4 K, non-isothermal thermogravimetry	0.034 kPa	0.034 kPa
383.2 K, non-isothermal thermogravimetry	0.037 kPa	0.037 kPa
384 K, isothermal thermogravimetry	0.0365 kPa	–
384 K, non-isothermal thermogravimetry	0.038 kPa	0.038 kPa
384.8 K, non-isothermal thermogravimetry	0.041 kPa	0.041 kPa
386.4 K, non-isothermal thermogravimetry	–	0.044 kPa
387 K, non-isothermal thermogravimetry	–	0.049 kPa
387.4 K, isothermal thermogravimetry	–	0.045 kPa
387.6 K, non-isothermal thermogravimetry	–	0.044 kPa
387.9 K, non-isothermal thermogravimetry	–	0.046 kPa
388.2 K, non-isothermal thermogravimetry	–	0.044 kPa
388.6 K, non-isothermal thermogravimetry	–	0.043 kPa
389.2 K, isothermal thermogravimetry	–	0.049 kPa
389.9 K, isothermal thermogravimetry	–	0.055 kPa
390.5 K, isothermal thermogravimetry	–	0.053 kPa
390.8 K, non-isothermal thermogravimetry	–	0.051 kPa
392.1 K, isothermal thermogravimetry	–	0.06 kPa
392.1 K, non-isothermal thermogravimetry	–	0.065 kPa
393.2 K, non-isothermal thermogravimetry	–	0.06 kPa
393.5 K, isothermal thermogravimetry	–	0.07 kPa
393.6 K, isothermal thermogravimetry	–	0.065 kPa
394.1 K, non-isothermal thermogravimetry	–	0.067 kPa
395 K, non-isothermal thermogravimetry	–	0.07 kPa
395.9 K, non-isothermal thermogravimetry	–	0.079 kPa
396.6 K, isothermal thermogravimetry	–	0.08 kPa
396.7 K, non-isothermal thermogravimetry	–	0.085 kPa
397.6 K, non-isothermal thermogravimetry	–	0.074 kPa
398.5 K, non-isothermal thermogravimetry	–	0.074 kPa
398.7 K, isothermal thermogravimetry	–	0.088 kPa
398.9 K, isothermal thermogravimetry	–	0.086 kPa
399 K, isothermal thermogravimetry	–	0.093 kPa
399.9 K, isothermal thermogravimetry	–	0.093 kPa
400.2 K, non-isothermal thermogravimetry	–	0.088 kPa
400.3 K, isothermal thermogravimetry	–	0.095 kPa
401 K, non-isothermal thermogravimetry	–	0.1 kPa
401.7 K, isothermal thermogravimetry	–	0.103 kPa
401.9 K, non-isothermal thermogravimetry	–	0.109 kPa
402 K, non-isothermal thermogravimetry	–	0.095 kPa
402.8 K, non-isothermal thermogravimetry	–	0.106 kPa
403.6 K, non-isothermal thermogravimetry	–	0.104 kPa
403.7 K, isothermal thermogravimetry	–	0.114 kPa and 0.111 kPa
404.4 K, non-isothermal thermogravimetry	–	0.125 kPa
405.3 K, non-isothermal thermogravimetry	–	0.131 kPa
406.1 K, non-isothermal thermogravimetry	–	0.139 kPa
406.5 K, isothermal thermogravimetry	–	0.122 kPa
406.9 K, isothermal thermogravimetry	–	0.133 kPa
406.9 K, non-isothermal thermogravimetry	–	0.119 kPa
407.7 K, non-isothermal thermogravimetry	–	0.153 kPa
408.5 K, non-isothermal thermogravimetry	–	0.142 kPa
409.3 K, non-isothermal thermogravimetry	–	0.158 kPa
410.2 K, non-isothermal thermogravimetry	–	0.148 kPa
411 K, non-isothermal thermogravimetry	–	0.174 kPa
411.8 K, non-isothermal thermogravimetry	–	0.168 kPa
412.6 K, non-isothermal thermogravimetry	–	0.177 kPa
413.4 K, non-isothermal thermogravimetry	–	0.174 kPa
414.3 K, non-isothermal thermogravimetry	–	0.192 kPa
415.1 K, non-isothermal thermogravimetry	–	0.202 kPa
415.9 K, non-isothermal thermogravimetry	–	0.195 kPa
416.8 K, non-isothermal thermogravimetry	–	0.211 kPa
417.6 K, non-isothermal thermogravimetry	–	0.229 kPa
418.4 K, non-isothermal thermogravimetry	–	0.248 kPa
419.3 K, non-isothermal thermogravimetry	–	0.261 kPa
420.1 K, non-isothermal thermogravimetry	–	0.257 kPa
421 K, non-isothermal thermogravimetry	–	0.254 kPa
421.8 K, non-isothermal thermogravimetry	–	0.267 kPa
422.7 K, non-isothermal thermogravimetry	–	0.286 kPa
423.6 K, non-isothermal thermogravimetry	–	0.306 kPa
424.5 K, non-isothermal thermogravimetry	–	0.301 kPa
425.4 K, non-isothermal thermogravimetry	–	0.347 kPa
426.4 K, non-isothermal thermogravimetry	–	0.366 kPa
426.8 K, non-isothermal thermogravimetry	–	0.371 kPa
427.5 K, non-isothermal thermogravimetry	–	0.405 kPa
428.6 K, non-isothermal thermogravimetry	–	0.367 kPa
428.7 K, non-isothermal thermogravimetry	–	0.416 kPa
